The values that follow come from US8299214B2 (priority 2006, dated 2012).

Read-outs that look alike come from different tables or passages of the source. Residues, ends and D or L forms follow the SMILES beside them. *: point of attachment. Stearoyl = CCCCCCCCCCCCCCCCCC(=O)*

The subject of assay [1] is influenza virus A/Aichi/2/68 strain (H3N2).
The subject of assay [2] is influenza virus A/Puerto Rico/8/34 strain (H1N1).
The mark [3] stands for this setting: influenza virus A/Aichi/2/68 strain.
Setting [4] is: influenza virus A/Puerto Rico/8/34 strain.
The mark [5] stands for this setting: read-out: IC50(μM) H3, Table 4, MDCK cells, plaque assay, H3N2.
Where [6] appears, read: read-out: IC50(μM) H1, Table 4, MDCK cells, plaque assay, H1N1.

As a reminder, the IC50 is the point on the concentration scale where inhibition reaches its midpoint. In the case of `CCCCCCCCCCCCCCCCCC(=O)N[C@@H](C)C(=O)N[C@@H](CCCNC(=N)N)C(=O)N[C@@H](CC(C)C)C(=O)N[C@@H](CO)C(=O)N1CCC[C@H]1C(=O)N[C@H](C(=O)N[C@@H](CCSC)C(=O)N[C@H](C(=O)N[C@@H](Cc1c[nH]cn1)C(=O)N1CCC[C@H]1C(=O)N[C@@H](CC(N)=O)C(=O)NCC(=O)N[C@@H](C)C(=O)N[C@@H](CCC(N)=O)C(=O)N1CCC[C@H]1C(N)=O)C(C)C)[C@@H](C)O` [C18-A1, C18-ARLSPTMVHPNGAQP, reference compound] (Stearoyl-ARLSPTMVHPNGAQP-NH2), the values for the IC50 in assay [1] (setting [3]) and in assay [2] (setting [4]) were 365 µM and 195 µM, respectively.
As to `CCCCCCCCCCCCCCCCCC(=O)N[C@@H](C)C(=O)N[C@@H](CCCNC(=N)N)C(N)=O` [C18-s2(1-2), C18-AR] (Stearoyl-Ala-Arg-NH2), the “inhibition of H3N2 influenza virus infection (in words)” value in assay [1] (MDCK cells, plaque assay) was “unable to inhibit infection”. Besides, the IC50 in assay [1] (setting [5]) and in assay [2] (setting [6]) was greater than 100 µM throughout. Besides, the “inhibition of H1N1 influenza virus infection (in words)” value in assay [2] (MDCK cells, plaque assay) is given as “unable to inhibit infection”.
`CCCCCCCCCCCCCCCCCC(=O)N[C@@H](C)C(=O)N[C@@H](CCCNC(=N)N)C(=O)N[C@@H](CC(C)C)C(N)=O` [C18-s2(1-3), C18-ARL]: the “inhibition of H3N2 influenza virus infection (in words)” value in assay [1] (MDCK cells, plaque assay) is recorded as “unable to inhibit infection”. Besides, the IC50 in assay [1] (setting [3]) and in assay [2] (setting [4]) was greater than 100 µM in each case. Also, the “inhibition of H1N1 influenza virus infection (in words)” value in assay [2] (MDCK cells, plaque assay) was “unable to inhibit infection”.
Turning to `CCCCCCCCCCCCCCCCCC(=O)N[C@@H](C)C(=O)N[C@@H](CCCNC(=N)N)C(=O)N[C@@H](CC(C)C)C(=O)N1CCC[C@H]1C(N)=O` [C18-s2(1-4), C18-ARLP] (Stearoyl-ARLP-NH2), the “inhibition of H3N2 influenza virus infection (in words)” value in assay [1] (MDCK cells, plaque assay) was “as strongly as, or more strongly than, C18-S2 peptide”. The 50% inhibitory concentration (IC50) amounted to 21 µM in assay [1] (setting [3]) and 0.9 µM in assay [2] (setting [4]). The “inhibition of H1N1 influenza virus infection (in words)” value in assay [2] (MDCK cells, plaque assay) was “more strongly than C18-S2 peptide”.
As for `CCCCCCCCCCCCCCCCCC(=O)N[C@@H](C)C(=O)N[C@@H](CCCNC(=N)N)C(=O)N[C@@H](CC(C)C)C(=O)N[C@@H](C)C(N)=O` [C18-s2(1-4)P4A, C18-ARLA] (Stearoyl-ARLA-NH2), the IC50 in assay [1] (setting [3]) and in assay [2] (setting [4]) was greater than 100 µM in each case.
For `CCCCCCCCCCCCCCCCCC(=O)N[C@@H](C)C(=O)N[C@@H](CCCNC(=N)N)C(=O)N[C@@H](CC(C)C)C(=O)N1CCC[C@H]1C(=O)N[C@@H](CCCNC(=N)N)C(N)=O` [C18-s2(1-5), C18-ARLPR] (Stearoyl-ARLPR-NH2), the “inhibition of H3N2 influenza virus infection (in words)” value in assay [1] (MDCK cells, plaque assay) is “as strongly as, or more strongly than, C18-S2 peptide”. For the same compound, the IC50 in assay [1] (setting [5]) worked out at 3 µM; in assay [1] (read-out: IC50(μM) H3, Table 5, MDCK cells, plaque assay, H3N2), 1.55 µM; in assay [2] (setting [6]) it was 3.1 µM; in assay [2] (read-out: IC50(μM) H1, Table 5, MDCK cells, plaque assay, H1N1) it was 0.35 µM. Also, the “inhibition of H1N1 influenza virus infection (in words)” value in assay [2] (MDCK cells, plaque assay) is given as “more strongly than C18-S2 peptide”.
Turning to `CCCCCCCCCCCCCCCCCC(=O)N[C@@H](C)C(=O)N[C@@H](CCCNC(=N)N)C(=O)N[C@@H](CC(C)C)C(=O)N1CCC[C@H]1C(=O)N[C@@H](CCCNC(=N)N)C(=O)N[C@H](C(N)=O)[C@@H](C)O` [C18-s2(1-6), C18-ARLPRT] (Stearoyl-ARLPRT-NH2), the “inhibition of H3N2 influenza virus infection (in words)” value in assay [1] (MDCK cells, plaque assay) was “as strongly as, or more strongly than, C18-S2 peptide”. The IC50 in assay [1] (setting [5]) was 5 µM; in assay [2] (setting [6]), 3.5 µM. In assay [2] (MDCK cells, plaque assay), the “inhibition of H1N1 influenza virus infection (in words)” value is recorded as “more strongly than C18-S2 peptide”.
For the compound `CCCCCCCCCCCCCCCCCC(=O)N[C@@H](C)C(=O)N[C@@H](CCCNC(=N)N)C(=O)N[C@@H](CC(C)C)C(=O)N1CCC[C@H]1C(=O)N[C@@H](CCCNC(=N)N)C(=O)N[C@H](C(=O)N[C@@H](CCSC)C(N)=O)[C@@H](C)O` [C18-s2(1-7), C18-ARLPRTM] (Stearoyl-ARLPRTM-NH2), the “inhibition of H3N2 influenza virus infection (in words)” value in assay [1] (MDCK cells, plaque assay) was “as strongly as, or more strongly than, C18-S2 peptide”. Moreover, the IC50 in assay [1] (setting [5]) was found to be 9.1 µM; in assay [2] (setting [6]), 7.1 µM. Also, in assay [2] (MDCK cells, plaque assay), the “inhibition of H1N1 influenza virus infection (in words)” value was “more strongly than C18-S2 peptide”.
As for `CCCCCCCCCCCCCCCCCC(=O)N[C@@H](C)C(=O)N[C@@H](CCCNC(=N)N)C(=O)N[C@@H](CC(C)C)C(=O)N1CCC[C@H]1C(=O)N[C@@H](CCCNC(=N)N)C(=O)N[C@H](C(=O)N[C@@H](CCSC)C(=O)N[C@H](C(N)=O)C(C)C)[C@@H](C)O` [C18-s2(1-8), C18-ARLPRTMV] (Stearoyl-ARLPRTMV-NH2), the “inhibition of H3N2 influenza virus infection (in words)” value in assay [1] (MDCK cells, plaque assay) is “as strongly as, or more strongly than, C18-S2 peptide”. Also, the IC50 in assay [1] (setting [5]) is 1.4 µM; in assay [2] (setting [6]), 2.4 µM. Besides, in assay [2] (MDCK cells, plaque assay), the “inhibition of H1N1 influenza virus infection (in words)” value is given as “more strongly than C18-S2 peptide”.
Take `CCCCCCCCCCCCCCCCCC(=O)N[C@@H](CCCNC(=N)N)C(=O)N[C@@H](CC(C)C)C(=O)N1CCC[C@H]1C(=O)N[C@@H](CCCNC(=N)N)C(=O)N[C@H](C(=O)N[C@@H](CCSC)C(=O)N[C@H](C(N)=O)C(C)C)[C@@H](C)O` [C18-s2(2-8), C18-RLPRTMV] (Stearoyl-RLPRTMV-NH2): the IC50 in assay [1] (setting [5]) is greater than 100 µM; in assay [2] (setting [6]), 9.2 µM. Further, the “inhibition of H1N1 influenza virus infection (in words)” value in assay [2] (MDCK cells, plaque assay) is recorded as “as strongly as, or more strongly than, C18-S2 peptide”.
Turning to `CCCCCCCCCCCCCCCCCC(=O)N[C@@H](CC(C)C)C(=O)N1CCC[C@H]1C(=O)N[C@@H](CCCNC(=N)N)C(=O)N[C@H](C(=O)N[C@@H](CCSC)C(=O)N[C@H](C(N)=O)C(C)C)[C@@H](C)O` [C18-s2(3-8), C18-LPRTMV] (Stearoyl-LPRTMV-NH2), the IC50 in assay [2] (setting [4]) is greater than 100 µM.
In turn, `CCCCCCCCCCCCCCCCCC(=O)N1CCC[C@H]1C(=O)N[C@@H](CCCNC(=N)N)C(=O)N[C@H](C(=O)N[C@@H](CCSC)C(=O)N[C@H](C(N)=O)C(C)C)[C@@H](C)O` [C18-s2(4-8), C18-PRTMV] (Stearoyl-PRTMV-NH2) showed an IC50 in assay [2] (setting [4]) greater than 100 µM.
For `CCCCCCCCCCCCCCCCCC(=O)N[C@@H](CCCNC(=N)N)C(=O)N[C@H](C(=O)N[C@@H](CCSC)C(=O)N[C@H](C(=O)N[C@@H](Cc1c[nH]cn1)C(=O)N1CCC[C@H]1C(=O)N[C@@H](CCCCN)C(N)=O)C(C)C)[C@@H](C)O` [C18-s2(5-11), C18-RTMVHPK] (Stearoyl-RTMVHPK-NH2), the 50% inhibitory concentration (IC50) in assay [1] (setting [3]) was greater than 100 µM; in assay [2] (setting [4]), 11 µM.
For `CCCCCCCCCCCCCCCCCC(=O)N[C@H](C(=O)N[C@@H](Cc1c[nH]cn1)C(=O)N1CCC[C@H]1C(=O)N[C@@H](CCCCN)C(=O)N1CCC[C@H]1C(=O)N[C@@H](C)C(=O)N[C@@H](CCC(N)=O)C(=O)N1CCC[C@H]1C(N)=O)C(C)C` [C18-s2(8-15), C18-VHPKPAQP] (Stearoyl-VHPKPAQP-NH2), in that order: 10.5 µM and 59 µM.
Turning to `CCCCCCCCCCCCCCCCCC(=O)N1CCC[C@H]1C(=O)N[C@@H](CC(C)C)C(=O)N[C@@H](CCCNC(=N)N)C(=O)N[C@@H](C)C(N)=O` [C18-s2(r1-4), C18-PLRA] (Stearoyl-PLRA-NH2), the “inhibition of H3N2 influenza virus infection (in words)” value in assay [1] (MDCK cells, plaque assay) is “more strongly than C18-s2 (r1-8)”. The IC50 in assay [1] (setting [3]) came out at 14 µM; in assay [2] (setting [4]), 0.41 µM. In addition, the “inhibition of H1N1 influenza virus infection (in words)” value in assay [2] (MDCK cells, plaque assay) was “more strongly than C18-s2 (r1-8)”.
